What all share (assay): NCI tumour cell line growth inhibition, 48 h
Test [1] concerns TK-10 renal.
Test [2] concerns A498 renal.
The test system of test [3] is ACHN renal.
Test [4] relates to OVCAR-3 ovarian.
Test [5] relates to SK-MEL-2 melanoma.
Test [6] relates to HOP-62 NSCLC.
Test [7] has as its system MCF7 breast.
For test [8], the system named is K-562 leukemia.
In test [9] the test system is NCI-H23 lung.
For test [10], the system named is SN12C renal.
The subject of test [11] is A549 NSCLC.
Test [12] relates to UACC-257 melanoma.
For test [13], the system named is RPMI-8226 leukemia.
The test system of test [14] is NCI-H226 lung.
Test [15] has as its system M14 melanoma.
For test [16], the system named is RXF 393 renal.
Test [17] relates to SNB-75 CNS.
Test [18] has as its system SF-539 CNS.
The subject of test [19] is SW-620 colon.

We go through seven compounds from PubChem BioAssay (NCI).

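Exposure lasted 48 hours, with cells grown in 96-well plates and compounds tested at five concentrations. The concentration for full growth arrest is given as TGI.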

On to `COC(=O)[C@]12CSC[C@H]1C[C@H](c1ccc(N(C)C)cc1)N2`, for which the TGI in [1], in [2], in test [3], in test [4], in test [5] and in [6] was over 100 µM throughout. In addition, the TGI in test [7], in test [8], in test [9], in test [10], in test [11] and in [12] was over 100 µM in each case. The TGI in test [13] was over 31.6 µM; in test [14] it was over 100 µM; in test [15], over 100 µM; in test [16], over 100 µM; in [17], over 100 µM; in [18], over 100 µM. In test [19], the TGI is over 100 µM.
On to `CC(C)(C)C(=O)Nc1cccc(-c2ccc[nH]2)n1`, for which the TGI in test [1], in test [2], in test [3], in [4], in test [5] and in [6] was over 100 µM in each case. The TGI in [7], in test [8], in [9], in test [10], in [11] and in [12] was over 100 µM throughout. The TGI in test [13] was 25.5 µM; in test [14] it was over 100 µM; in test [15] it was over 100 µM; in [16] it was over 100 µM; in test [17], over 100 µM; in test [18], over 100 µM. Further, the TGI in test [19] is over 100 µM.
`O=Cc1ccc2c(c1)CC1(C2)Cc2ccc(C=O)cc2C1`: the TGI in [1] turned out to be 65 µM; in test [2] it was 69.7 µM; in test [3] it was 62.1 µM; in test [4], 34.1 µM; in test [5], 30.8 µM; in test [6], 37.2 µM. Besides, the TGI in test [7] is over 70 µM; in test [8], 12.9 µM; in test [9], 49.8 µM; in test [10], 64.5 µM; in test [11], over 95.3 µM; in [12], 40.5 µM. Also, the TGI is 22.1 µM in [13]; 62.6 µM in test [14]; 19.7 µM in test [15]; over 25.4 µM in test [16]; over 100 µM in test [17]; 15.1 µM in test [18]. In test [19], this compound returned a TGI of 39.2 µM.
On to `N#CC1=C(N2CCOCC2)CCC1`, for which the TGI in test [1], in [2], in [3], in test [4], in test [5] and in test [6] was over 100 µM each time. Besides, the TGI in [7], in test [8], in [9], in [10], in test [11] and in [12] was over 100 µM each time. Moreover, the TGI in test [13], in test [14], in [15], in test [16], in [17] and in [18] was over 100 µM each time. The compound also registered a TGI in test [19] of over 100 µM.
With `O=c1[nH]c(=O)n(C2CC(O)C(CO)O2)c2nc3ccc4ccccc4c3nc12` (stereo not drawn), the TGI in test [1] was over 100 µM; in test [2], over 100 µM; in [3] it was over 100 µM; in test [4], over 100 µM; in [5] it was over 100 µM; in [6], 98.3 µM. Also, the TGI in test [7], in [8], in [9], in test [10], in test [11] and in [12] was over 100 µM in each case. Moreover, the TGI in test [13] is 76 µM; in [14], over 100 µM; in test [15] it was over 100 µM; in [16], over 100 µM; in [17], over 100 µM; in [18], over 100 µM. For the same compound, in test [19], the TGI was over 100 µM.
As for `O=c1[nH]c2ccsc2c(=O)n1COCc1ccccc1`, the TGI in test [1], in test [2], in test [3], in [4], in [5] and in [6] was over 100 µM throughout. The TGI in test [7], in test [8], in [9], in test [10], in test [11] and in test [12] was over 100 µM in each case. The TGI in [13], in test [14], in test [15], in test [16], in test [17] and in test [18] was over 100 µM throughout. The compound further registered a TGI in [19] of over 100 µM.
For the compound `COC(=O)/C(C#N)=C(\Nc1ccccc1)N1CCCCC1`, the TGI in test [1], in [2], in [3], in test [4], in [5] and in test [6] was over 100 µM throughout. Also, the TGI in [7], in [8], in test [9], in test [10], in test [11] and in test [12] was over 100 µM each time. The TGI in [13], in test [14], in test [15], in test [16], in test [17] and in [18] was over 100 µM each time. In test [19], this compound displayed a TGI of over 100 µM.
